Data set [1] is described as follows: Cytotoxicity against […] cells assessed as cell viability by MTT assay relative to control. It counts as cell-based, BV-2. On the set-up: concentration or dose not given beside the values. To be noted: Mus musculus, read-out: Activity. For orientation: Tetrazolium assays rely on reduction of a dye to a coloured formazan, in cell work by metabolically active cells.

For data set [2], the system named is BV-2. Nature of the data set: Inhibition of LPS-induced nitric oxide production in […] cells after 24 hrs by Griess assay. In kind it is functional, cell-based. To be noted: Mus musculus, BV-2, 24 h.

Molecules are shown by their SMILES.

By IC50 is commonly meant the midpoint of a concentration-inhibition curve. Turning to `C=C(C(=O)O)[C@@H]1CC[C@H](C)C2=C(C1)[C@]1(C)C[C@H]2C[C@@]1(C(=O)O)[C@@H]1CC[C@H](C)[C@@H]2CC(=O)C(C)=C2C1`, in data set [1], the viability worked out at 90.7%. Half-maximal inhibition in data set [2] (IC50) was put at 32.7 µM.

Consider `C=C(C(=O)O)[C@@H]1CC[C@]2(C)[C@@H](C1)C(C)=C[C@H]1[C@@H]2C[C@]1(C(=O)O)[C@@H]1CC[C@H](C)[C@@H]2CC(=O)C(C)=C2C1`, for which the viability in data set [1] stood at 91.1%. The same compound returned a 50% inhibitory concentration (IC50) in data set [2] of 39.8 µM.

Take `C=C(C(=O)O)[C@@H]1CC[C@@]2(C)C=C[C@@H]3[C@@](C)(C[C@@]3(C(=O)O)[C@@H]3CC[C@H](C)[C@@H]4CC(=O)C(C)=C4C3)[C@@H]2C1`: in data set [1], the viability came out at 95.7%. This compound came in with an IC50 in data set [2] of 27.3 µM.

Take `C=C(C(=O)O)[C@@H]1CC[C@@]2(C)C[C@@H](OC(=O)C(=C)[C@@H]3CC[C@H](C)[C@@H]4CC(=O)C(C)=C4C3)C[C@@](C)(O)[C@@H]2C1`: the viability in data set [1] came to 97.2%. The IC50 in data set [2] came to 40.6 µM.

Take `C=C(C(=O)O)[C@@H]1CC[C@H](C)C2=C(C1)[C@@]1(C)C[C@@H]2[C@](C(=O)O)([C@@H]2CC[C@H](C)[C@@H]3CC(=O)C(C)=C3C2)C1`: in data set [1], the viability stood at 90.7%. The compound also came in with a 50% inhibitory concentration (IC50) in data set [2] of 38.6 µM.

With `C=C(C(=O)O)[C@@H]1CC[C@@]2(C)[C@@H](OC(=O)C(=C)[C@@H]3CC[C@H](C)[C@@H]4CC(=O)C(C)=C4C3)C=C(C(C)=O)[C@@]2(O)C1`, the viability in data set [1] was determined as 95.4%. In data set [2], this compound returned an IC50 of 30.1 µM.

With `C=C(C(=O)O)[C@@H]1CC[C@H](C)C23C[C@]4(C(=O)O[C@]56C[C@H]4CC[C@H](C)[C@@H]5CC[C@]6(C)O)[C@@H](C(C)=C2C1)[C@@H]3O`, in data set [1], the viability was determined as 91.8%. Also, the half-maximal inhibitory concentration (IC50) in data set [2] stood at 71.8 µM.

As to `C=C(C(=O)O)[C@@H]1CC[C@H](C)C2=C[C@@H]3[C@@]4(CC2(C1)[C@@]3(C)O)C(=O)O[C@]12C[C@H]4CC[C@H](C)[C@@H]1CC[C@]2(C)O`, the viability in data set [1] worked out at 77.3%. Also, it took 43.6 µM to reach half-maximal inhibition in data set [2] (IC50).

As to `C=C(C(=O)O)[C@@H]1CC[C@H](C)C2=C(C1)[C@]1(C)C[C@H]2C[C@@]1(C(=O)O)[C@@H]1CC[C@H](C)[C@@H]2CC(=O)C(C)=C2[C@H]1O`, the viability in data set [1] was determined as 91.1%. This compound also registered a 50% inhibitory concentration (IC50) in data set [2] of 23 µM.

Consider `C=C(C(=O)O)[C@@H]1CC[C@]2(C)C(=C(C)[C@@H](O)[C@H]3[C@@H]2C[C@]3(C(=O)O)[C@@H]2CC[C@H](C)[C@@H]3CC(=O)C(C)=C3C2)C1`, for which the viability in data set [1] stood at 94.6%. For the same compound, the IC50 in data set [2] is 29.8 µM.

Take `C=C(C(=O)O)[C@@H]1CC[C@H](C)[C@]23C[C@H](C(C)=C2C1)[C@]1(C3)C(=O)O[C@]23C[C@H]1CC[C@H](C)[C@@H]2CC[C@]3(C)O`: in data set [1], the viability was 89.1%. Also, the midpoint of inhibition in data set [2], the IC50, lay at 17 µM.

`C=C(C(=O)O)[C@@H]1CC[C@]2(C)[C@@H](C1)C(C)=C[C@@H](OC(=O)C(=C)[C@@H]1CC[C@H](C)[C@@H]3CC(=O)C(C)=C3C1)[C@@H]2O`: in data set [1], the viability stood at 96.7%. Further, the 50% inhibitory concentration (IC50) in data set [2] amounted to 33 µM.

For `O=c1c(O)c(-c2ccc(O)c(O)c2)oc2cc(O)cc(O)c12` [QUERCETIN], in data set [1], the viability is 99.5%. Inhibition in data set [2] was half-maximal at 8.7 µM (IC50).

For the origin of these results see ChEMBL document CHEMBL3779831, “Nitric Oxide Inhibitory Dimeric Sesquiterpenoids from Artemisia rupestris” (J Nat Prod, 2016).
